Data on one molecule can be found in patent publication US8653046B2, “Controlling transgene expression across the skin” (ETH Zurich, priority 2009, dated 2014).

The target in the assay is T1, tetracycline-responsive control system (PSV40-tTA-pA; PhCMV*-1-SAMY-pA) (Escherichia coli, UniProt P04483).
T1 construct: expressed in transfected cells; host or cells: CHO-PEACE8 transiently transfected with pSAM200 and pBP99
As to the kind of experiment: Compatibility test: tetracycline-responsive (TETOFF) SAMY production in CHO-PEACE8 (pSAM200, pBP99). The settings on record: CHO-PEACE8 transiently transfected with tetracycline-responsive control system; Phl 50 μM, Tet 2 μg/mL; 48 h; 100 = no inducer. The class given is cell-based. The source says:
To evaluate the functional compatibility of PEACE with the established tetracycline— [TETOFF; Gossen M., Bujard H., 1992, Proc Natl Acad Sci USA 89(12):5547-5551] and macrolide— [EOFF; Weber W., et al., 2002, Nat Biotechnol 20(9):901-907] responsive expression circuits CHO-PEACE8 is transiently transfected, transgenic for phloretin-responsive SEAP expression, with either the TETOFF-(pSAM200, PSV40-tTA-pA; pBP99, PhCMV*-1-SAMY-pA) or the EOFF-(PWW35, PSV40-ET1-pA; pBP100, PETR3-SAMY-pA) system set to control the Bacillus stearothermophilus-derived secreted α-amylase (SAMY) in response to tetracycline and erythromycin, respectively. SEAP and SAMY expression are scored 48 h after cultivation of the transfected populations in the presence (50 μM; 2 μg/mL) or absence of the inducer molecules (phloretin, tetracycline, erythromycin).

Each structure is given as a SMILES string.

T1 sequence (P04483 whole entry, added parts left off): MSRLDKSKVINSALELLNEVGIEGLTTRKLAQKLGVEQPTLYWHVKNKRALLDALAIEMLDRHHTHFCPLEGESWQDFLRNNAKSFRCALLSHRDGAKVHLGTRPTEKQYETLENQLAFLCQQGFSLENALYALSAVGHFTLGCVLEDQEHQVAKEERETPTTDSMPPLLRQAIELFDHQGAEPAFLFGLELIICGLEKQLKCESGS

Consider `O=C(CCc1ccc(O)cc1)c1c(O)cc(O)cc1O` [phloretin, 3-[4-hydroxyphenyl]-1-[2,4,6-trihydroxyphenyl]-1-propanone], for which the “Relative SAMY Production (%)” value came out at 98.1 ± 2.8%.
